Data taken from the supplement of paper PMC10307832.

compound: CC(O)(CS(=O)(=O)c1ccc(F)cc1)C(=O)Nc1ccc(C#N)c(C(F)(F)F)c1 [Bicalutamide] + Cc1nc(Nc2ncc(C(=O)Nc3c(C)cccc3Cl)s2)cc(N2CCN(CCO)CC2)n1 [Dasatinib] (partner 0.075 µM); test: relative viability (nuclei count vs DMSO), 5 days (fraction); higher = more cells survive; conditions: first compound 2.53 µM
Procedure, shortened: (§1)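 Lung cancer cell lines in 1536-well plates were dosed by pin tool the day after seeding, either with one drug alone or with a fixed anchor-drug dose plus five library-drug doses (not always all listed) in √10 steps. After 5 days, cells were fixed and their nuclei stained in one step (final 0.05% Triton X-100, 1% formaldehyde, 1 ug/ml Hoechst), then counted on 4× images. Relative viability is the nuclei count in treated wells divided by that in vehicle wells. Values are medians of duplicate plates.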

Compared with NCI-H1793, NCI-H1563 is higher in relative viability: 0.377 for the first, 0.409 for the second.

First: NCI-H1944
Second: ABC-1
The relative viability of the first is lower: 0.208 for the first, 0.475 for the second.

For NCI-H358, the relative viability was 0.145.

compound: CC(O)(CS(=O)(=O)c1ccc(F)cc1)C(=O)Nc1ccc(C#N)c(C(F)(F)F)c1 [Bicalutamide] + O=C(CCCCCCC(=O)Nc1ccccc1)NO [Vorinostat] (partner 1 µM); test: as above; conditions: first compound 0.08 µM
Procedure, shortened: as §1

Going from NCI-H522 to NCI-H838, the relative viability falls from 1.01 to 0.72.

First: NCI-H1650
Second: NCI-H2009
The relative viability of the first is lower: 0.685 for the first, 0.732 for the second.

Going from NCI-H1993 to PC-14, the relative viability falls from 0.864 to 0.854.

First: LCLC-103H
Second: NCI-H596
The relative viability of the first is higher: 0.791 for the first, 0.679 for the second.

Going from NCI-H2228 to EMC-BAC-2, the relative viability falls from 0.584 to 0.5.

Compared with NCI-H2087, HCC-366 is lower in relative viability: 0.668 for the first, 0.368 for the second.

Compared with NCI-H1666, NCI-H647 is lower in relative viability: 0.921 for the first, 0.474 for the second.

First: LK-2
Second: NCI-H2126
The relative viability of the first is lower: 0.346 for the first, 0.716 for the second.

First: NCI-H2342
Second: SK-MES-1
The relative viability of the first is lower: 0.759 for the first, 1.21 for the second.

Going from H3255 to COR-L23, the relative viability falls from 0.808 to 0.443.

First: COR-L 105
Second: IA-LM
The relative viability of the first is lower: 0.983 for the first, 0.985 for the second.

Going from LOU-NH91 to ChaGo-K-1, the relative viability falls from 0.985 to 0.763.

First: NCI-H2170
Second: NCI-H3122
The relative viability of the first is lower: 0.794 for the first, 1.01 for the second.

First: HOP-62
Second: HCC-44
The relative viability of the first is lower: 0.783 for the first, 1.12 for the second.

Compared with SW 900, LU99A is lower in relative viability: 0.601 for the first, 0.461 for the second.

Compared with BEN, HARA is lower in relative viability: 0.537 for the first, 0.469 for the second.

Going from NCI-H727 to NCI-H1395, the relative viability falls from 1.38 to 0.882.

Going from NCI-H1793 to NCI-H1944, the relative viability falls from 0.869 to 0.54.

Going from ABC-1 to NCI-H358, the relative viability falls from 1.06 to 0.804.

same assay, conditions: first compound 0.253 µM

Compared with NCI-H522, NCI-H838 is lower in relative viability: 0.862 for the first, 0.707 for the second.

First: NCI-H1650
Second: NCI-H2009
The relative viability of the first is lower: 0.586 for the first, 0.719 for the second.

Compared with NCI-H1993, PC-14 is lower in relative viability: 0.675 for the first, 0.605 for the second.

First: LCLC-103H
Second: NCI-H596
The relative viability of the first is higher: 0.679 for the first, 0.571 for the second.

Going from NCI-H2228 to EMC-BAC-2, the relative viability falls from 0.795 to 0.434.

First: NCI-H2087
Second: HCC-366
The relative viability of the first is higher: 0.643 for the first, 0.331 for the second.

Going from NCI-H1666 to NCI-H647, the relative viability falls from 1.05 to 0.655.

First: LK-2
Second: NCI-H2126
The relative viability of the first is lower: 0.339 for the first, 0.712 for the second.

Compared with NCI-H2342, SK-MES-1 is higher in relative viability: 0.767 for the first, 1.07 for the second.

Compared with H3255, COR-L23 is lower in relative viability: 0.755 for the first, 0.486 for the second.

Compared with COR-L 105, IA-LM is higher in relative viability: 0.712 for the first, 0.803 for the second.

Going from LOU-NH91 to ChaGo-K-1, the relative viability falls from 0.723 to 0.691.

Going from NCI-H2170 to NCI-H3122, the relative viability rises from 0.741 to 0.946.

Compared with HOP-62, HCC-44 is higher in relative viability: 0.606 for the first, 1.21 for the second.

First: SW 900
Second: LU99A
The relative viability of the first is lower: 0.281 for the first, 0.436 for the second.

Going from BEN to HARA, the relative viability falls from 0.719 to 0.477.

Compared with NCI-H727, NCI-H1395 is lower in relative viability: 1.08 for the first, 0.666 for the second.

Going from NCI-H1944 to ABC-1, the relative viability rises from 0.516 to 0.805.

NCI-H358 gave a relative viability of 0.604.

same assay, conditions: first compound 0.8 µM

Compared with NCI-H522, NCI-H838 is lower in relative viability: 0.99 for the first, 0.749 for the second.

Going from NCI-H1650 to NCI-H2009, the relative viability rises from 0.581 to 0.898.

First: NCI-H1993
Second: PC-14
The relative viability of the first is higher: 0.787 for the first, 0.732 for the second.

Compared with LCLC-103H, NCI-H596 is lower in relative viability: 0.914 for the first, 0.66 for the second.

Going from NCI-H2228 to EMC-BAC-2, the relative viability falls from 0.993 to 0.833.

Going from NCI-H2087 to HCC-366, the relative viability falls from 0.812 to 0.52.

First: NCI-H1666
Second: NCI-H647
The relative viability of the first is higher: 1.14 for the first, 0.575 for the second.

Going from LK-2 to NCI-H2126, the relative viability rises from 0.354 to 0.931.

Compared with NCI-H2342, SK-MES-1 is higher in relative viability: 0.853 for the first, 1.19 for the second.

Compared with H3255, COR-L23 is lower in relative viability: 0.969 for the first, 0.411 for the second.

First: COR-L 105
Second: IA-LM
The relative viability of the first is lower: 0.944 for the first, 1.16 for the second.

Compared with LOU-NH91, ChaGo-K-1 is lower in relative viability: 0.971 for the first, 0.887 for the second.

Going from NCI-H2170 to NCI-H3122, the relative viability rises from 0.867 to 1.07.

First: HOP-62
Second: HCC-44
The relative viability of the first is lower: 0.689 for the first, 1.1 for the second.

Going from SW 900 to LU99A, the relative viability rises from 0.394 to 0.626.

Going from BEN to HARA, the relative viability falls from 0.588 to 0.586.

Going from NCI-H1648 to NCI-H727, the relative viability rises from 0.698 to 1.24.

First: NCI-H1395
Second: NCI-H1793
The relative viability of the first is lower: 0.792 for the first, 0.996 for the second.

Compared with NCI-H1944, ABC-1 is higher in relative viability: 0.593 for the first, 1.5 for the second.

For NCI-H358, the relative viability was 0.662.

same assay, conditions: first compound 2.53 µM

First: NCI-H522
Second: NCI-H838
The relative viability of the first is higher: 0.77 for the first, 0.564 for the second.

Going from NCI-H1650 to NCI-H2009, the relative viability rises from 0.611 to 0.71.

First: NCI-H1993
Second: PC-14
The relative viability of the first is higher: 0.705 for the first, 0.574 for the second.

First: LCLC-103H
Second: NCI-H596
The relative viability of the first is higher: 0.744 for the first, 0.648 for the second.

Going from NCI-H2228 to EMC-BAC-2, the relative viability falls from 0.581 to 0.289.

Compared with NCI-H2087, HCC-366 is lower in relative viability: 0.856 for the first, 0.134 for the second.

Going from NCI-H1666 to NCI-H647, the relative viability falls from 0.981 to 0.435.

First: LK-2
Second: NCI-H2126
The relative viability of the first is lower: 0.311 for the first, 0.75 for the second.

Compared with NCI-H2342, SK-MES-1 is higher in relative viability: 0.801 for the first, 1.03 for the second.

First: H3255
Second: COR-L23
The relative viability of the first is higher: 0.69 for the first, 0.267 for the second.

Going from COR-L 105 to IA-LM, the relative viability rises from 0.717 to 0.892.

Compared with LOU-NH91, ChaGo-K-1 is lower in relative viability: 0.893 for the first, 0.772 for the second.

Going from NCI-H2170 to NCI-H3122, the relative viability rises from 0.803 to 0.887.

Going from HOP-62 to HCC-44, the relative viability rises from 0.52 to 1.12.

Going from SW 900 to LU99A, the relative viability rises from 0.398 to 0.43.

Going from BEN to HARA, the relative viability falls from 0.617 to 0.517.

Going from NCI-H1648 to NCI-H727, the relative viability rises from 0.425 to 1.19.

First: NCI-H1395
Second: NCI-H1793
The relative viability of the first is higher: 0.624 for the first, 0.566 for the second.

Going from NCI-H1944 to ABC-1, the relative viability rises from 0.438 to 0.947.

NCI-H358 gave a relative viability of 0.544.
